Source: patent publication US20250360132A1, “METHODS OF ADMINISTERING MYOSIN INHIBITORS” (MYOKARDIA, INC., priority 2022, published 2025)

Legend:
bacterial = assay type: cell-based
Source text: Mavacamten was not genotoxic in a bacterial reverse mutation test (Ames test), a human in vitro lymphocyte […] assay, or a rat in vivo micronucleus assay.

CYP2C19 [1] = test: Pharmacogenomics: CYP2C19 PMs vs NMs, single dose; assay type: in vivo, human; conditions: single dose of 15 mg mavacamten
Source text: Mean half-life is prolonged in CYP2C19 PMs compared to NMs (23 days vs. 6 to 9 days, respectively).
Polymorphic CYP2C19 is the main enzyme involved in the metabolism of MAVACAMTEN. An individual carrying two normal function alleles is a NM (e.g., *1/*1). An individual carrying two no function alleles is a PM (e.g., *2/*2, *2/*3, *3/*3).

[2] = tested on: organic anion transporting polypeptides (OATPs); test: In vitro transporter inhibition; assay type: in vitro ADME
CYP2B6 = test: In vitro CYP induction; assay type: in vitro ADME
Source text: Mavacamten is a CYP2B6 inducer.

CYP2C19 [3] = molecular target: CYP2C19 (Homo sapiens, UniProt P33261); test: Metabolism, contribution of CYP2C19; assay type: in vitro ADME
Sequence of CYP2C19 (Homo sapiens, UniProt P33261) (P33261 whole entry): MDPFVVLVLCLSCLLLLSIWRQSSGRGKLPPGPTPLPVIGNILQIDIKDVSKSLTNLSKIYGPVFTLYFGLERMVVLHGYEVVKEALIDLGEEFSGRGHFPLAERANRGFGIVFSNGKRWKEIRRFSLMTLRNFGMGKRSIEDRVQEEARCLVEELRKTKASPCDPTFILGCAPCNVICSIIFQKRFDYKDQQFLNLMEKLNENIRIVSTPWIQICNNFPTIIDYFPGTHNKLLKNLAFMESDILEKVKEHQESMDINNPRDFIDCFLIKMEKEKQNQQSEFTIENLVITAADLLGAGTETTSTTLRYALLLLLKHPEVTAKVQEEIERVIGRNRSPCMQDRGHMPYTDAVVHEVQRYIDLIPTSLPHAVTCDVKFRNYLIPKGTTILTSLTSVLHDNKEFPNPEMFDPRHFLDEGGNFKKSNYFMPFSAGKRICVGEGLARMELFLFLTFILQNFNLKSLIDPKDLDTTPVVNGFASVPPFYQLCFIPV
Source text: (§1) Mavacamten is extensively metabolized, primarily through CYP2C19 (74%), CYP3A4 (18%), and CYP2C9 (8%).
(§2) Statement of Purpose: Mavacamten is a first-in-class, selective, allosteric, and reversible cardiac myosin inhibitor in development for the treatment of adults with symptomatic obstructive hypertrophic cardiomyopathy. Mavacamten is hepatically metabolized predominantly via CYP2C19 (74%), CYP3A4 (18%) and CYP2C9 (8%). A previously developed fit-for-purpose physiologically based pharmacokinetic (PBPK) model was applied to explore the induction effects of a strong CYP3A4/CYP2C19 inducer-rifampin, as well as a strong CYP3A4 inducer-carbamazepine, on mavacamten exposures.

CYP2C9 = CYP2C9 (Homo sapiens, UniProt P11712); test: Metabolism, contribution of CYP2C9; assay type: in vitro ADME
Sequence of CYP2C9 (P11712 whole entry): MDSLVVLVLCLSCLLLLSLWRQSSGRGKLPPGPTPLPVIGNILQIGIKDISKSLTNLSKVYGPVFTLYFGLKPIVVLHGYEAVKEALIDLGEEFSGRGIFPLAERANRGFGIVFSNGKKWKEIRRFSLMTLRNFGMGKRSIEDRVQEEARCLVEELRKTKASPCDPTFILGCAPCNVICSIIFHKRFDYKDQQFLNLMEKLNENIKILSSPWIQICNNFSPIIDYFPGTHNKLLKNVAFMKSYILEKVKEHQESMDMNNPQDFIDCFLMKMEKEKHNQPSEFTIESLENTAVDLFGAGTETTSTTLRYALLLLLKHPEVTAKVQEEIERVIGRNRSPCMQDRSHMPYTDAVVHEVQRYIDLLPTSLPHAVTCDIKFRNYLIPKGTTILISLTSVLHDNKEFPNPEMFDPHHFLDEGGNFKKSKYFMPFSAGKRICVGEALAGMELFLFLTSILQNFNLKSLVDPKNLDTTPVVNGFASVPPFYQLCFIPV
Source text: as §1, §2

healthy volunteers = test: Cardiac electrophysiology (QTc) in healthy volunteers; assay type: in vivo, human
Source text: The mechanism of the QT prolongation effect is not known.

rats = test: Animal toxicology, rats; assay type: in vivo
Experimental: The safety of mavacamten has been evaluated in rats and dogs at multiple dose levels (0.06 to 10 mg/kg/day) orally. […] Plasma exposures (AUC) at the NOAEL in rats and dogs were 0.1 and 0.3 times, respectively, human exposure (AUC) at the MRHD.

HCM patients = test: Meta-analysis of QTc across clinical studies; assay type: in vivo, human; conditions: therapeutic exposure range
Source text: The effect of coadministration of MAVACAMTEN with QT-prolonging drugs or in patients with potassium channel variants resulting in a long QT interval have not been characterized.

[4] = Clinical pharmacokinetics; assay type: in vivo, human
Experimental: At the same dose level of MAVACAMTEN, 170% higher exposures of mavacamten are observed in patients with HCM compared to healthy subjects.
The Tmax was increased by 4 hours.
Mavacamten has a variable terminal t1/2 that depends on CYP2C19 metabolic status. […] Drug accumulation occurs with an accumulation ratio of about 2-fold for Cmax and about 7-fold for AUC in CYP2C19 NMs. The accumulation depends on the metabolism status for CYP2C19 with the largest accumulation observed in CYP2C19 PMs. At steady-state, the peak-to-trough plasma concentration ratio with once daily dosing is approximately 1.5.
Following a single 25 mg dose of radiolabeled mavacamten, 7% of the dose was recovered in feces (1% unchanged) and 85% in urine (3% unchanged).
The effects of severe (eGFR: 15 to 30 mL/min/1.73 m^2) renal impairment and kidney failure (eGFR: <15 mL/min/1.73 m^2; including patients on dialysis) are unknown.

MATE2-K = MATE2-K (Homo sapiens, UniProt Q86VL8); test: In vitro transporter inhibition; assay type: in vitro ADME
Sequence of MATE2-K (Q86VL8 1-566 isoform Q86VL8-3): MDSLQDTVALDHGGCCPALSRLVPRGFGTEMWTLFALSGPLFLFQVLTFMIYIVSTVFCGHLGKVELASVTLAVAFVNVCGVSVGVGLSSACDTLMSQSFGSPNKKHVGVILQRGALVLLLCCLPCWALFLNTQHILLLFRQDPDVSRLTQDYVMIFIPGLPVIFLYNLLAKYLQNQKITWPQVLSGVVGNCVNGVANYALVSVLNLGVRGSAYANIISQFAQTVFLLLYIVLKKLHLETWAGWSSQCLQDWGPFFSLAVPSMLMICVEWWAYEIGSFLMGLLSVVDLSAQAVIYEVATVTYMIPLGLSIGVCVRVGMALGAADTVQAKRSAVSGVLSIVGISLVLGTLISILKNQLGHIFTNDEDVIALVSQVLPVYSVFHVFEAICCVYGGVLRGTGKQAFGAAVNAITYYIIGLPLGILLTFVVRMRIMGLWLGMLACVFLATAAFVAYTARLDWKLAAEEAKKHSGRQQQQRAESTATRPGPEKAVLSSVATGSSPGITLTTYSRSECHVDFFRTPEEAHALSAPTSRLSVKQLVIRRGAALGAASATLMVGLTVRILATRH

rasH2 transgenic mouse = test: 6-month rasH2 transgenic mouse carcinogenicity study; assay type: in vivo

SMILES: CC(C)n1c(=O)cc(N[C@@H](C)c2ccccc2)[nH]c1=O [mavacamten, (S)-3-Isopropyl-6-((1-phenylethyl)amino)pyrimidine-2,4(1H,3H)-dione]
- Genotoxicity, Ames test (bacterial): not genotoxic
- Increase in AUCinf in CYP2C19 PMs compared to NMs (CYP2C19 [1]): 241%
- Increase in Cmax in CYP2C19 PMs compared to NMs (CYP2C19 [1]): 47%
- Inhibition of OATPs [2]: does not inhibit
- Induction of CYP2B6 (CYP2B6): inducer
- Metabolism through CYP2C19 (CYP2C19 [3]): 74%
- Metabolism through CYP2C9 (CYP2C9): 8%
- QTc interval effect, multiple doses (healthy volunteers; doses up to 25 mg once daily): concentration-dependent increase in the QTc interval
- QTc interval effect, single-dose studies (healthy volunteers; similar exposures): No acute QTc changes
- Plasma exposure (AUC) at the NOAEL vs human exposure at the MRHD (rats): 0.1 times
- QTc interval in HCM patients (HCM patients): does not suggest clinically relevant increases in the QTc interval
- Pharmacokinetics in specific populations ([4]; age 18-82 years, sex, race, ethnicity, mild to moderate renal impairment): No clinically significant differences
- Effect of food on pharmacokinetics ([4]; high fat meal): No clinically significant differences
- Dose proportionality of exposure ([4]; multiple once-daily doses of 1 mg to 15 mg): increases generally dose proportionally
- Higher exposure in patients with HCM compared to healthy subjects ([4]; same dose level): 170%
- Inhibition of MATE2-K (MATE2-K): does not inhibit
- Carcinogenicity (rasH2 transgenic mouse; 6-month, up to 2.0 mg/kg/day in males and 3.0 mg/kg/day in females): no evidence of carcinogenicity
- Exposure (AUC) compared to humans at the MRHD (rasH2 transgenic mouse; females, 3.0 mg/kg/day): 3 fold
- Exposure (AUC) compared to humans at the MRHD (rasH2 transgenic mouse; males, 2.0 mg/kg/day): 1.8 fold
